Experimental findings from ChEMBL document CHEMBL5154740, “Novel Aurora A and Protein Kinase C (α, β1, β2, and θ) Multitarget Inhibitors: Impact of Selenium Atoms on the Potency and Selectivity” (J Med Chem, 2022) are described below.

For test [1], the system named is MDA-MB-231. The test can be described thus: Cytotoxicity against human MDA-MB-231/M cells assessed as reduction in cell viability incubated for 96 hrs by MTT assay. It is filed as functional, cell-based. Particulars: MDA-MB-231, 96 h.
For test [2], the target named is Protein kinase C beta type (Homo sapiens) (UniProt P05771). The test can be described thus: Inhibition of PKCbeta2 (unknown origin) at 50 nM by Z'LYTE screening method relative to control.
For test [3], the target named is T1, Protein kinase C theta type (Homo sapiens, UniProt Q04759). Put plainly: Inhibition of PKCtheta (unknown origin) at 50 nM by Z'LYTE screening method relative to control.
Target sequence in this assay (Q04759 whole entry, looked up): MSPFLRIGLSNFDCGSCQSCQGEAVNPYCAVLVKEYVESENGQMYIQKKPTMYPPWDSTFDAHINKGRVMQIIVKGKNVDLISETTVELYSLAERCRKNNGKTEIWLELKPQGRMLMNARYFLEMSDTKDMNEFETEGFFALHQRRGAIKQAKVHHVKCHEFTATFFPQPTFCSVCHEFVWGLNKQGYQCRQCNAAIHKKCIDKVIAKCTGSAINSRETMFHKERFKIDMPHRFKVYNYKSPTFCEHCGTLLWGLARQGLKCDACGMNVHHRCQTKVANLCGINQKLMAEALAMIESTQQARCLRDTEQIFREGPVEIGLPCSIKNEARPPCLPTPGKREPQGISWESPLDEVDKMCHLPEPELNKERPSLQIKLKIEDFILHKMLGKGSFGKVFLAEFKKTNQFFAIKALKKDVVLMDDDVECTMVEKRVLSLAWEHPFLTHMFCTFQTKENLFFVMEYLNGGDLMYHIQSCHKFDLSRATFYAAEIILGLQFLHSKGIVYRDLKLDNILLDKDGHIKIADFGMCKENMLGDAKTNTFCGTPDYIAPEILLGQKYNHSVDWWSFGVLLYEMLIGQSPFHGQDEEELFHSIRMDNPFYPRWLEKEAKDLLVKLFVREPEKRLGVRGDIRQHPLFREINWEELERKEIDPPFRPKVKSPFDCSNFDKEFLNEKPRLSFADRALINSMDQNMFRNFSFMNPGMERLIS
The target in test [4] is Protein kinase C alpha type (Homo sapiens) (UniProt P17252). Put plainly: Inhibition of PKCalpha (unknown origin) at 50 nM by Z'LYTE screening method relative to control.
The target in test [5] is T2, Aurora kinase A (Homo sapiens) (UniProt O14965).
T2 sequence (whole entry): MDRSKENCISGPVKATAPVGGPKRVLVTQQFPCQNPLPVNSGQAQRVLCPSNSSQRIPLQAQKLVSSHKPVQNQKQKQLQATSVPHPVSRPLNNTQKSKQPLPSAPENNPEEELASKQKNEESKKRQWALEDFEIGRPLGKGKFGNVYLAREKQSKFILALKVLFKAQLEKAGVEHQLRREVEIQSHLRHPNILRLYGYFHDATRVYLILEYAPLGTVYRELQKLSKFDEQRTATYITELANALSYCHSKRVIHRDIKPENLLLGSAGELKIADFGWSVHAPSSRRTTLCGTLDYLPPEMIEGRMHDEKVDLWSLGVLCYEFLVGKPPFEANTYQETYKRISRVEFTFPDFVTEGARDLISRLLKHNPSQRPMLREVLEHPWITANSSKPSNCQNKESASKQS
Put plainly: Inhibition of AURA (unknown origin) at 50 nM by Z'LYTE screening method relative to control.

Test [6] relates to 4T1. The test can be described thus: Cytotoxicity against mouse 4T1 cells assessed as reduction in cell viability incubated for 96 hrs by MTT assay. Particulars: 4T1, 96 h. It is filed as functional, cell-based.
In test [7] the target is Aurora kinase B (Homo sapiens) (UniProt Q96GD4). Put plainly: Inhibition of AURB (unknown origin) at 50 nM by Z'LYTE screening method relative to control.
Test [8] deals with Protein kinase C beta type (Homo sapiens) (UniProt P05771). The test can be described thus: Inhibition of PKCbeta1 (unknown origin) at 50 nM by Z'LYTE screening method relative to control.
In test [9] the target is Protein kinase C eta type (Homo sapiens, UniProt P24723). Put plainly: Inhibition of PKCeta (unknown origin) by IMAP kinase assay.
Test [10] addresses Aurora kinase C (Homo sapiens, UniProt Q9UQB9). Put plainly: Inhibition of AURC (unknown origin).
The target in test [11] is Protein kinase C epsilon type (Homo sapiens, UniProt Q02156). Put plainly: Inhibition of PKCepsilon (unknown origin) by IMAP kinase assay.
For test [12], the target named is T3, Serine/threonine-protein kinase D1 (Homo sapiens) (UniProt Q15139).
T3 sequence (whole entry): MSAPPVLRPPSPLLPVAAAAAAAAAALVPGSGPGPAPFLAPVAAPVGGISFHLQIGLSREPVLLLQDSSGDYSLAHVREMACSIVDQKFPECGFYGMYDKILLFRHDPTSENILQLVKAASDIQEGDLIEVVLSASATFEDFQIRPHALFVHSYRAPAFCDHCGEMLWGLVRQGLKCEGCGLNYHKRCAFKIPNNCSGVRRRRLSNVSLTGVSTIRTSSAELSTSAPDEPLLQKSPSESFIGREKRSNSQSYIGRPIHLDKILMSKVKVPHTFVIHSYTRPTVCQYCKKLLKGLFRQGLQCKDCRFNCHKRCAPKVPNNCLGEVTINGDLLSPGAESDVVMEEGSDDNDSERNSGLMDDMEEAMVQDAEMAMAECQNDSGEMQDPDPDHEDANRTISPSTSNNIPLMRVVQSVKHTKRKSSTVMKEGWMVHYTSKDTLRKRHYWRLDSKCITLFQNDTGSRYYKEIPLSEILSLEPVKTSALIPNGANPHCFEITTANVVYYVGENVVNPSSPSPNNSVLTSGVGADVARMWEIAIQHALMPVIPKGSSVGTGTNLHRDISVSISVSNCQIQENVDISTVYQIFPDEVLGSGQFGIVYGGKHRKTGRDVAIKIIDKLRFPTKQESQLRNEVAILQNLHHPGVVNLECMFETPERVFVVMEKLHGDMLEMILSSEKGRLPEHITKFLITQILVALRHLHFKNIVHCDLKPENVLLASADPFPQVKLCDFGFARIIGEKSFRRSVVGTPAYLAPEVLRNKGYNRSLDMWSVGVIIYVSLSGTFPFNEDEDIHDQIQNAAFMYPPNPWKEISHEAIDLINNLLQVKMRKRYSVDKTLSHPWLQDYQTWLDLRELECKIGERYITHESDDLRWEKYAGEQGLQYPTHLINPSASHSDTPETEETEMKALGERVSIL
The test can be described thus: Inhibition of PKCmu (unknown origin) by Z'LYTE screening method relative to control. The conditions noted are these: concentration not given here.

Test [13] addresses Protein kinase C alpha type (Homo sapiens) (UniProt P17252). The test can be described thus: Inhibition of PKCalpha (unknown origin) by Z'LYTE screening method relative to control. Particulars: concentration not given here.
The target in test [14] is Serine/threonine-protein kinase D3 (Homo sapiens, UniProt O94806). Put plainly: Inhibition of PKCnu (unknown origin) by IMAP kinase assay.
Test [15] deals with T4, Protein kinase C zeta type (Homo sapiens) (UniProt Q05513).
T4 sequence (whole entry): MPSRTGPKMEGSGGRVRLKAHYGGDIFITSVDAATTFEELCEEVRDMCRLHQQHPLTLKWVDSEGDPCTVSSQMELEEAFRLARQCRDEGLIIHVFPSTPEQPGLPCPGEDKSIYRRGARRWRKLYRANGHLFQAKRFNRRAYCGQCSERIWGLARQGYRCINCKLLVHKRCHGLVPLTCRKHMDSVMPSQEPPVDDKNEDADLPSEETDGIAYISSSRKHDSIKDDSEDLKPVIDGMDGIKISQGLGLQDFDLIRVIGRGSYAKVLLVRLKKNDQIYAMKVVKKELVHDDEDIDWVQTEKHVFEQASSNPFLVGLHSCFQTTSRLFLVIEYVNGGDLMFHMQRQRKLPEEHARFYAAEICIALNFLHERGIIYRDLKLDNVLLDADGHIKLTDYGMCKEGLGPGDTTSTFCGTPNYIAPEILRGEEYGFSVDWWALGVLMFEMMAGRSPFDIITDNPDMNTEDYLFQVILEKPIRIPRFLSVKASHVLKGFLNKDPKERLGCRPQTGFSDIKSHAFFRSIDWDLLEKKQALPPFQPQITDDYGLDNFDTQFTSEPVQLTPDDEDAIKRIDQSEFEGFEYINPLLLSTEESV
Put plainly: Inhibition of PKCzeta (unknown origin) by Z'LYTE screening method relative to control. The conditions noted are these: concentration not given here.

The target in test [16] is T5, Serine/threonine-protein kinase D3 (Homo sapiens) (UniProt O94806).
T5 sequence (whole entry): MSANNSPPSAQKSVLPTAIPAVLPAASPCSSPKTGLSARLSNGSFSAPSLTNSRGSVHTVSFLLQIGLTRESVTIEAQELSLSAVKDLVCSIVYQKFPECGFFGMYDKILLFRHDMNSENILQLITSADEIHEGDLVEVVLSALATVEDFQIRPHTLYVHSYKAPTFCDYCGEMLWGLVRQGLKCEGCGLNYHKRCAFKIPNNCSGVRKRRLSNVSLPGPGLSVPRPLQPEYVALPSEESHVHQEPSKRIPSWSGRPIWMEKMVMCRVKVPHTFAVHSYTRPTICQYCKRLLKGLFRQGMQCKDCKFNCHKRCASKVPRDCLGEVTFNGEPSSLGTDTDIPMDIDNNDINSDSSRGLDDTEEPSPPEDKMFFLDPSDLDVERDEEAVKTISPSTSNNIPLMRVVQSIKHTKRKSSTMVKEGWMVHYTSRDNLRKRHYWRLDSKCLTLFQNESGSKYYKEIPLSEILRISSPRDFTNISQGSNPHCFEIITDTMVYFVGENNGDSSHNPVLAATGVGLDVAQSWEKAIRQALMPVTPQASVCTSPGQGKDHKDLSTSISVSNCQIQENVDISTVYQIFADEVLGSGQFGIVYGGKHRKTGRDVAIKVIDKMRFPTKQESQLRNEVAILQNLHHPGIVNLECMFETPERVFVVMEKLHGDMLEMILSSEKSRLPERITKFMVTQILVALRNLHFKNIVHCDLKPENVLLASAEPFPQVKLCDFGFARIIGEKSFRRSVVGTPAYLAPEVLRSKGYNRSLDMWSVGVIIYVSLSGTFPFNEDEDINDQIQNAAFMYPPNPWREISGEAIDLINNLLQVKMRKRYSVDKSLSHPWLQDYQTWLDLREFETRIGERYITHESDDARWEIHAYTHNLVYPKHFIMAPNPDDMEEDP
Put plainly: Inhibition of PKCnu (unknown origin) by Z'LYTE screening method relative to control. The conditions noted are these: concentration not given here.

Test [17] has as its target Protein kinase C beta type (Homo sapiens) (UniProt P05771). The test can be described thus: Inhibition of PKCbeta2 (unknown origin) by Z'LYTE screening method relative to control. The conditions noted are these: concentration not given here.
For test [18], the target named is T1, Protein kinase C theta type. Put plainly: Inhibition of full length human PKCtheta using 5-FAM-RFARKGSLRQKNV-OH peptide substrate incubated for 30 mins by IMAP kinase assay.
Target sequence in this assay (Q04759 whole entry): as the sequence (Q04759 whole entry, looked up) above
Test [19] deals with T6, Protein kinase C epsilon type (Homo sapiens) (UniProt Q02156).
T6 sequence (whole entry): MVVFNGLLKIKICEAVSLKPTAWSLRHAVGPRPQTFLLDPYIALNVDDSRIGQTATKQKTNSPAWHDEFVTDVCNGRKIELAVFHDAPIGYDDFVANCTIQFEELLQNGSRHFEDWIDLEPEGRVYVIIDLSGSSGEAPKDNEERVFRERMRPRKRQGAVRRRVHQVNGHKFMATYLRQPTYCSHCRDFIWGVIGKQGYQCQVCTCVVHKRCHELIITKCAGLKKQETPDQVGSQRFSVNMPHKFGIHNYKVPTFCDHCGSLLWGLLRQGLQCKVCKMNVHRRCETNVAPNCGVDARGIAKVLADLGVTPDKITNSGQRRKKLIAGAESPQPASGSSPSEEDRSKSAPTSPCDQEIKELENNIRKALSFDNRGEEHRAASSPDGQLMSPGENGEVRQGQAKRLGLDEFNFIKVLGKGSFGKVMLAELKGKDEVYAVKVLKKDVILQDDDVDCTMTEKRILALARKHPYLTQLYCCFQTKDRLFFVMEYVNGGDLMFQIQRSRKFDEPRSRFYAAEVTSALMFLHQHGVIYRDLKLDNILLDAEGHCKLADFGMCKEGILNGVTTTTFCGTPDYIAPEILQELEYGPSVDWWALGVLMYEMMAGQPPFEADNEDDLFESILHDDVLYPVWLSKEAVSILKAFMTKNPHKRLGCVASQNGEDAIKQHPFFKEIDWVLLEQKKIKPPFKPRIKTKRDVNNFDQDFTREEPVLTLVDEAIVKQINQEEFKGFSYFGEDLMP
The test can be described thus: Inhibition of PKCepsilon (unknown origin) by Z'LYTE screening method relative to control. Particulars: concentration not given here.

Test [20] has as its target Protein kinase C beta type (Homo sapiens) (UniProt P05771). The test can be described thus: Inhibition of PKCbeta1 (unknown origin) by Z'LYTE screening method relative to control. The conditions noted are these: concentration not given here.
For test [21], the target named is Proto-oncogene tyrosine-protein kinase receptor Ret (Homo sapiens) (UniProt P07949). Put plainly: Inhibition of RET (unknown origin) by Z'LYTE screening method relative to control. The conditions noted are these: concentration not given here.

Molecules are shown by their SMILES.

Protein kinase C beta type (Homo sapiens), sequence (P05771 2-671 limits assumed): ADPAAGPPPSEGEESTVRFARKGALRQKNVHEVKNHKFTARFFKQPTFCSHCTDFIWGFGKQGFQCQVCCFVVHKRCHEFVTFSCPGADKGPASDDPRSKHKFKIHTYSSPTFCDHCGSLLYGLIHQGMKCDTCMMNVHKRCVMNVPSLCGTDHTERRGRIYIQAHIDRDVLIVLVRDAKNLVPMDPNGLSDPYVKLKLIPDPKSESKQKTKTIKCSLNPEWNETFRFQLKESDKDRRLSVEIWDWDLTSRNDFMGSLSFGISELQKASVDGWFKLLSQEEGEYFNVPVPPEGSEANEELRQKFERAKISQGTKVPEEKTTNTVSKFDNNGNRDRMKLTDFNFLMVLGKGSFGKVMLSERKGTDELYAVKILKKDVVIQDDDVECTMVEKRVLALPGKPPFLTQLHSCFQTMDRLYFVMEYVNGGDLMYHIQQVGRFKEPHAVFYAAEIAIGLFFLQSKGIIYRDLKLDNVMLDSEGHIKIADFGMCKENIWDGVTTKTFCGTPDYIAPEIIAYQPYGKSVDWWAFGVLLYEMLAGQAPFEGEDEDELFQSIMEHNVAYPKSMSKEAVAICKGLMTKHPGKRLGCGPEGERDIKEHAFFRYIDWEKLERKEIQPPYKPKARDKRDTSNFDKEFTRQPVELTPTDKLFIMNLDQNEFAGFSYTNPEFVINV
Aurora kinase B (Homo sapiens), sequence (Q96GD4 whole entry): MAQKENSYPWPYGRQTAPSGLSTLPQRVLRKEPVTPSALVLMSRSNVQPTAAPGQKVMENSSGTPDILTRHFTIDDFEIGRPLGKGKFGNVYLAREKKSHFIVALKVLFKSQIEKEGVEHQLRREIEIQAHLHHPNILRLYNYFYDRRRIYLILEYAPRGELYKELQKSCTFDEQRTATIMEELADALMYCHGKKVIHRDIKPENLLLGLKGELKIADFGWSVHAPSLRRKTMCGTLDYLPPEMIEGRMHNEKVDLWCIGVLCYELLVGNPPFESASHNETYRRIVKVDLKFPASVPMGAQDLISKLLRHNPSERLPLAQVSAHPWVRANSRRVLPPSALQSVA
Proto-oncogene tyrosine-protein kinase receptor Ret (Homo sapiens), sequence (P07949 whole entry): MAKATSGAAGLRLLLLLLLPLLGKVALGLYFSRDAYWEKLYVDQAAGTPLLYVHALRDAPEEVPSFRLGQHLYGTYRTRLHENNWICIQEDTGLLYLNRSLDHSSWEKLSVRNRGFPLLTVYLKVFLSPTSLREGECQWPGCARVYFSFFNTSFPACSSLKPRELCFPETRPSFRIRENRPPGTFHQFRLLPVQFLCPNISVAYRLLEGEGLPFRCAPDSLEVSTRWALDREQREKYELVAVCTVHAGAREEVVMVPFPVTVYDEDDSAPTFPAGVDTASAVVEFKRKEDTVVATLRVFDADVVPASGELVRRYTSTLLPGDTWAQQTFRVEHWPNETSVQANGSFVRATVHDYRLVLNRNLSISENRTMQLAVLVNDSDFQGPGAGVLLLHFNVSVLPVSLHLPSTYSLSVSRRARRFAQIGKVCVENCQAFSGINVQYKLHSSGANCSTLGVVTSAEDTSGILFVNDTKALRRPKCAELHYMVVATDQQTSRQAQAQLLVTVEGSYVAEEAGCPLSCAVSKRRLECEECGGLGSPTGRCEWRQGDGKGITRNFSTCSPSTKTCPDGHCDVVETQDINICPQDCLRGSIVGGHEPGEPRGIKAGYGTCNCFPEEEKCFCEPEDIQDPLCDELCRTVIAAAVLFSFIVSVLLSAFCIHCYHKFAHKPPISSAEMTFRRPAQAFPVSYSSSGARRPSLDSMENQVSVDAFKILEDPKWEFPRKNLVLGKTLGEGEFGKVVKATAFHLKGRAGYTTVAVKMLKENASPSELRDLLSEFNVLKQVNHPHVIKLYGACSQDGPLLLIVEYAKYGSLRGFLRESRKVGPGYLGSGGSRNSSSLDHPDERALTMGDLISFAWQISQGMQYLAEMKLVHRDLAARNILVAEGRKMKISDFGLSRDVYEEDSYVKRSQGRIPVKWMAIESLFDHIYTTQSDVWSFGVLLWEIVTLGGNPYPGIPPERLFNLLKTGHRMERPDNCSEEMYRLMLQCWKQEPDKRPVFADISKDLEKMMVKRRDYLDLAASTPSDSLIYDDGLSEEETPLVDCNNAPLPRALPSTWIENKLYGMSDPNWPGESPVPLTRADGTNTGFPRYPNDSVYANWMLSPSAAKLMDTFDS
Aurora kinase C, sequence (Q9UQB9 whole entry): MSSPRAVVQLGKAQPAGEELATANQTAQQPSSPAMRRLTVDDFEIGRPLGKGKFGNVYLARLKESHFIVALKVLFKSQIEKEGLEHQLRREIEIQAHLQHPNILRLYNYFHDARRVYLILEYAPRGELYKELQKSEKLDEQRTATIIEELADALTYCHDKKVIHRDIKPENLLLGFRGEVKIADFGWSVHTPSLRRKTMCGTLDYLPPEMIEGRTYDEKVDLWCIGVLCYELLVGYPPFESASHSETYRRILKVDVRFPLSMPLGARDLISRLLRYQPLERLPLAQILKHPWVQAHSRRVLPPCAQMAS
Protein kinase C eta type, sequence (P24723 whole entry): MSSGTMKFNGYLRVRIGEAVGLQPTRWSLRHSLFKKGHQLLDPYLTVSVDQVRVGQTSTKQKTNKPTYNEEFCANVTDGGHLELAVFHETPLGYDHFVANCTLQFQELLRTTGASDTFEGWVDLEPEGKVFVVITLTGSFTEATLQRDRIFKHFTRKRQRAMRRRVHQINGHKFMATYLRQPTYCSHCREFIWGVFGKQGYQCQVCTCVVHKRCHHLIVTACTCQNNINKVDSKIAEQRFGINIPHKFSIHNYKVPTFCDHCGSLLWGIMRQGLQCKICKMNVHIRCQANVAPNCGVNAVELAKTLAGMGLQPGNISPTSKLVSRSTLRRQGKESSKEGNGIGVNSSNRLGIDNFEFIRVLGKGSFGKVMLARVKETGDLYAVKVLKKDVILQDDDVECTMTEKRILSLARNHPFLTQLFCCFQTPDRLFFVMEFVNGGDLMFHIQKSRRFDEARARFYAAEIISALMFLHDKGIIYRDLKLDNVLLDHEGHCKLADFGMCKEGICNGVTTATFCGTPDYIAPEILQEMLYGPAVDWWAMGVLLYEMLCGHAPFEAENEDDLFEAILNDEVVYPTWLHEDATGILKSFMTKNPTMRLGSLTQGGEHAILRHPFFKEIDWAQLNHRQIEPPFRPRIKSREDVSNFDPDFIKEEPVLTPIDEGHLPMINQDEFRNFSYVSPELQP

One may read the IC50 as the point on the concentration scale where inhibition reaches its midpoint. What is called inhibition is the relative decrease from the control value, in per cent. Low values mean little suppression, high ones strong suppression. With `O=c1c2ccccc2sn1-c1nc(NC2CCCC2)c2nc[nH]c2n1`, the IC50 in test [1] is 29200 nM; in [6], 25600 nM. In addition, the inhibition in [2] stood at 13%; in [3] it was 60%; in [4], 65%; in test [5], 58%; in test [7], 7%; in test [8], 40%.
Molecule `O=C(N[C@@H]1CNCCC[C@H]1OC(=O)c1cc(O)c(C(=O)c2c(O)cccc2C(=O)O)c(O)c1)c1ccc(O)cc1` [BALANOL] returned an IC50 in test [9] of 4 nM.
Regarding `O=c1c2ccccc2sn1-c1nc(NC2CCSC2)c2nc[nH]c2n1` (configuration not stated), the IC50 in test [1] is 10300 nM; in test [6], 12200 nM. Also, the inhibition in test [2] was determined as 81%; in test [3], 97%; in [4], 92%; in [5] it was 69%; in test [7], 7%; in [8], 85%.
As to `O=C(Nc1cccc(Cl)c1)Nc1ncc(CCNc2ncnc3ccsc23)s1` [SNS-314], half-maximal inhibition in [10] (IC50) required 3 nM.
Turning to `CN1CCN(c2nc(C3=C(c4c[nH]c5ccccc45)C(=O)NC3=O)c3ccccc3n2)CC1` [SOTRASTAURIN], the results for the IC50 in test [11], in test [14] and in [18] were 3.2 nM, 2.1 nM and 0.22 nM, respectively. Also, the inhibition came to 92% in test [12]; 100% in test [13]; 80% in [15]; 76% in [16]; 98% in test [17]; 76% in test [19]. In test [20], this molecule displayed an inhibition of 98%.
Consider `Cc1cc(Nc2cc(N3CCN(C)CC3)nc(Sc3ccc(NC(=O)C4CC4)cc3)n2)n[nH]1`, for which the inhibition came to 8% in test [13], 62% in test [21], 2% in test [17] and 6% in test [20].
